Experiments:
Assay in all cases: Kinase selectivity, DiscoverX scanMAX Kinase assay panel (% control)
Type in all cases: binding
[1] = target: T1, kinases of the scanMAX Kinase assay panel (Homo sapiens, UniProt Q9UBE8); details: NLK; 1 uM
T1 construct: purchased DiscoverX Co. (contract measurement) scanMAX Kinase assay panel
T1 sequence (Q9UBE8 1-527): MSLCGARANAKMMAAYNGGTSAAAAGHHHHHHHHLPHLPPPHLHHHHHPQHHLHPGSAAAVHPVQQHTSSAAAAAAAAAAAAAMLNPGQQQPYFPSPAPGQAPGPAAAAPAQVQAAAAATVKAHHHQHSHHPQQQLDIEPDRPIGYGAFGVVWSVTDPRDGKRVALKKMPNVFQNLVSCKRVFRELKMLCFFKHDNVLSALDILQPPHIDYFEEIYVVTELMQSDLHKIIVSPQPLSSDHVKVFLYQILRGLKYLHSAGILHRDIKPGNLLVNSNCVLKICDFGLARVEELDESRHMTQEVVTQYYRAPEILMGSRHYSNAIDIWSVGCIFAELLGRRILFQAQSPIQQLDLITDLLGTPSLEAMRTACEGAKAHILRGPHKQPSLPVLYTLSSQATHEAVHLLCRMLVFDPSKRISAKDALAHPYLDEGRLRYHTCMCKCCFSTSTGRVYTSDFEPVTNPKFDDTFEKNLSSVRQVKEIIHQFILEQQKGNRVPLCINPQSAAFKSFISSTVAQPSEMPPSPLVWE
How it was run: (§1)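 Each enzyme is treated with drug at 1 uM in DMSO, then signal is scaled between a positive control (0%) and DMSO (100%) to give % control. Kinases with % control under 35% are scored as inhibited.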

[2] = target: T2, kinases of the scanMAX Kinase assay panel (Homo sapiens, UniProt Q13705); details: ACVR2B; 1 uM
T2 construct: purchased DiscoverX Co. (contract measurement) scanMAX Kinase assay panel
T2 sequence (Q13705 19-512): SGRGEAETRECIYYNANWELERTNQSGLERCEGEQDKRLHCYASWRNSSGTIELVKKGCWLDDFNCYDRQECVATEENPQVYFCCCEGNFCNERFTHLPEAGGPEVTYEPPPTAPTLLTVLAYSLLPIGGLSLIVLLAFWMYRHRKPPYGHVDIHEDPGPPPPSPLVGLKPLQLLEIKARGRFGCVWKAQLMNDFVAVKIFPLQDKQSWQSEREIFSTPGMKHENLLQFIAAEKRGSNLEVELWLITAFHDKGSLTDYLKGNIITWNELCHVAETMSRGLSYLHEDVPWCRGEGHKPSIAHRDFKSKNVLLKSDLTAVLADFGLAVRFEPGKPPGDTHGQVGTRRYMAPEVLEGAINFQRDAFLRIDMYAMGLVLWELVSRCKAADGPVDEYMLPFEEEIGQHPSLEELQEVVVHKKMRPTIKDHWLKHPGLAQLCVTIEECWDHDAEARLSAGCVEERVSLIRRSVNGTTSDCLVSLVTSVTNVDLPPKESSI
How it was run: as §1

[3] = target: T3, kinases of the scanMAX Kinase assay panel (Homo sapiens, UniProt Q9HCP0); details: CSNK1G1; 1 uM
T3 construct: purchased DiscoverX Co. (contract measurement) scanMAX Kinase assay panel
T3 sequence (Q9HCP0 whole entry): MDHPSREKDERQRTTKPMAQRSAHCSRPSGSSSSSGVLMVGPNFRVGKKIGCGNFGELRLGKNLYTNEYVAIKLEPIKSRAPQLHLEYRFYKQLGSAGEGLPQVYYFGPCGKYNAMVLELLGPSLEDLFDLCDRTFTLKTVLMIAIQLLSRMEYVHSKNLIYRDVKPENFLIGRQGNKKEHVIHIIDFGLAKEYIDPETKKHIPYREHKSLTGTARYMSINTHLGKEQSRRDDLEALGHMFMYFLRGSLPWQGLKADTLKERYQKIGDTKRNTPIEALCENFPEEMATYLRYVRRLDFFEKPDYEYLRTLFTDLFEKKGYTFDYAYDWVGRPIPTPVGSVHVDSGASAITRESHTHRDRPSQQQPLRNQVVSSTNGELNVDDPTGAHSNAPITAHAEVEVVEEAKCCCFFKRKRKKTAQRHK
How it was run: as §1

[4] = target: T4, kinases of the scanMAX Kinase assay panel (Homo sapiens, UniProt Q9UF33); details: EPHA6; 1 uM
T4 construct: purchased DiscoverX Co. (contract measurement) scanMAX Kinase assay panel
T4 sequence (Q9UF33 23-1036): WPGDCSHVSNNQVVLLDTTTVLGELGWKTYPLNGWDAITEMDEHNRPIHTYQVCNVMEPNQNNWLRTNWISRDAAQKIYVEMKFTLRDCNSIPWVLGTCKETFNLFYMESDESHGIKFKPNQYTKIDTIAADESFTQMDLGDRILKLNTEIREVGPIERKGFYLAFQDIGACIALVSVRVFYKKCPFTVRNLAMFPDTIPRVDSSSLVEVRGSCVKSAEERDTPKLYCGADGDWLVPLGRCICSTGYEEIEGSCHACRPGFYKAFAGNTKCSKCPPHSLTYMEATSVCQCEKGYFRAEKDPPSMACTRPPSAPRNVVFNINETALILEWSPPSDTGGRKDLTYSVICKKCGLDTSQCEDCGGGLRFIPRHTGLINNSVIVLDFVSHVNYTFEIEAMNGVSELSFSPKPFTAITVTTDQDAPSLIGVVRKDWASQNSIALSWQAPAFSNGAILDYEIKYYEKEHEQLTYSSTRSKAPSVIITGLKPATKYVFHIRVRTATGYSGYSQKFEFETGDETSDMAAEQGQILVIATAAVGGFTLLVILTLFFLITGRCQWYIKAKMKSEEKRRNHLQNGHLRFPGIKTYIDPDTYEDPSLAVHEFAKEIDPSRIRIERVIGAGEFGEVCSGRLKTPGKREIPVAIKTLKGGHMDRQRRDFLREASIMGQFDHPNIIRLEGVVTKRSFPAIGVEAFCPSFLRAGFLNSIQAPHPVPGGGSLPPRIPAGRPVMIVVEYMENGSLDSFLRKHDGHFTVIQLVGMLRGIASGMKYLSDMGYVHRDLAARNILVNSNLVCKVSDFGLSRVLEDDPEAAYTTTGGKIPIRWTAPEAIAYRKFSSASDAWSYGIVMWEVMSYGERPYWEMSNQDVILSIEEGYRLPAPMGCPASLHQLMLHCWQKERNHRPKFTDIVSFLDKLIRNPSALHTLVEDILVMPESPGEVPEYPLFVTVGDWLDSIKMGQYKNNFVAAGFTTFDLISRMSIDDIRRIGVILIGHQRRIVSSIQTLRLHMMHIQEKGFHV
How it was run: as §1

[5] = target: T5, kinases of the scanMAX Kinase assay panel (Homo sapiens, UniProt Q96L34); details: MARK4; 1 uM
T5 construct: purchased DiscoverX Co. (contract measurement) scanMAX Kinase assay panel
T5 sequence (Q96L34 1-752): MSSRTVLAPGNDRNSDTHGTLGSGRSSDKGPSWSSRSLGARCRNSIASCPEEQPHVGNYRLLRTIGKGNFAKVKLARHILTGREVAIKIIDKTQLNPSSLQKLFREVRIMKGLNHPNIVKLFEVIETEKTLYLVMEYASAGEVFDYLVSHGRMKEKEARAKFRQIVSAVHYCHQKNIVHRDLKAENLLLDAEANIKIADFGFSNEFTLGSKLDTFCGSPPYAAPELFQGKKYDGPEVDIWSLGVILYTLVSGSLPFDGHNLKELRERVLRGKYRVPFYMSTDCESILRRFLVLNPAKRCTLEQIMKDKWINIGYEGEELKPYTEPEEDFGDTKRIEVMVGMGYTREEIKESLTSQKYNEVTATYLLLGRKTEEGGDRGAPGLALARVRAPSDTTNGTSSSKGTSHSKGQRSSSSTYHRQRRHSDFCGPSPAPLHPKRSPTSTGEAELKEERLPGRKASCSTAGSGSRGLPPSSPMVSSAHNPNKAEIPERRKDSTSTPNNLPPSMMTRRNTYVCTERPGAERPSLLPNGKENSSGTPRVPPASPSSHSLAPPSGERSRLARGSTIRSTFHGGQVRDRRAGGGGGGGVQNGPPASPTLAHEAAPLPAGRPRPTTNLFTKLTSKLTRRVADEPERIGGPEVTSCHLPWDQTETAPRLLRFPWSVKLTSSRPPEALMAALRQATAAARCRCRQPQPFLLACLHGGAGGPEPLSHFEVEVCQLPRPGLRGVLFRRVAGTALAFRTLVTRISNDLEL
How it was run: as §1

[6] = target: T6, kinases of the scanMAX Kinase assay panel (Homo sapiens, UniProt O14578); details: CIT; 1 uM
T6 construct: purchased DiscoverX Co. (contract measurement) scanMAX Kinase assay panel
T6 sequence (O14578 whole entry): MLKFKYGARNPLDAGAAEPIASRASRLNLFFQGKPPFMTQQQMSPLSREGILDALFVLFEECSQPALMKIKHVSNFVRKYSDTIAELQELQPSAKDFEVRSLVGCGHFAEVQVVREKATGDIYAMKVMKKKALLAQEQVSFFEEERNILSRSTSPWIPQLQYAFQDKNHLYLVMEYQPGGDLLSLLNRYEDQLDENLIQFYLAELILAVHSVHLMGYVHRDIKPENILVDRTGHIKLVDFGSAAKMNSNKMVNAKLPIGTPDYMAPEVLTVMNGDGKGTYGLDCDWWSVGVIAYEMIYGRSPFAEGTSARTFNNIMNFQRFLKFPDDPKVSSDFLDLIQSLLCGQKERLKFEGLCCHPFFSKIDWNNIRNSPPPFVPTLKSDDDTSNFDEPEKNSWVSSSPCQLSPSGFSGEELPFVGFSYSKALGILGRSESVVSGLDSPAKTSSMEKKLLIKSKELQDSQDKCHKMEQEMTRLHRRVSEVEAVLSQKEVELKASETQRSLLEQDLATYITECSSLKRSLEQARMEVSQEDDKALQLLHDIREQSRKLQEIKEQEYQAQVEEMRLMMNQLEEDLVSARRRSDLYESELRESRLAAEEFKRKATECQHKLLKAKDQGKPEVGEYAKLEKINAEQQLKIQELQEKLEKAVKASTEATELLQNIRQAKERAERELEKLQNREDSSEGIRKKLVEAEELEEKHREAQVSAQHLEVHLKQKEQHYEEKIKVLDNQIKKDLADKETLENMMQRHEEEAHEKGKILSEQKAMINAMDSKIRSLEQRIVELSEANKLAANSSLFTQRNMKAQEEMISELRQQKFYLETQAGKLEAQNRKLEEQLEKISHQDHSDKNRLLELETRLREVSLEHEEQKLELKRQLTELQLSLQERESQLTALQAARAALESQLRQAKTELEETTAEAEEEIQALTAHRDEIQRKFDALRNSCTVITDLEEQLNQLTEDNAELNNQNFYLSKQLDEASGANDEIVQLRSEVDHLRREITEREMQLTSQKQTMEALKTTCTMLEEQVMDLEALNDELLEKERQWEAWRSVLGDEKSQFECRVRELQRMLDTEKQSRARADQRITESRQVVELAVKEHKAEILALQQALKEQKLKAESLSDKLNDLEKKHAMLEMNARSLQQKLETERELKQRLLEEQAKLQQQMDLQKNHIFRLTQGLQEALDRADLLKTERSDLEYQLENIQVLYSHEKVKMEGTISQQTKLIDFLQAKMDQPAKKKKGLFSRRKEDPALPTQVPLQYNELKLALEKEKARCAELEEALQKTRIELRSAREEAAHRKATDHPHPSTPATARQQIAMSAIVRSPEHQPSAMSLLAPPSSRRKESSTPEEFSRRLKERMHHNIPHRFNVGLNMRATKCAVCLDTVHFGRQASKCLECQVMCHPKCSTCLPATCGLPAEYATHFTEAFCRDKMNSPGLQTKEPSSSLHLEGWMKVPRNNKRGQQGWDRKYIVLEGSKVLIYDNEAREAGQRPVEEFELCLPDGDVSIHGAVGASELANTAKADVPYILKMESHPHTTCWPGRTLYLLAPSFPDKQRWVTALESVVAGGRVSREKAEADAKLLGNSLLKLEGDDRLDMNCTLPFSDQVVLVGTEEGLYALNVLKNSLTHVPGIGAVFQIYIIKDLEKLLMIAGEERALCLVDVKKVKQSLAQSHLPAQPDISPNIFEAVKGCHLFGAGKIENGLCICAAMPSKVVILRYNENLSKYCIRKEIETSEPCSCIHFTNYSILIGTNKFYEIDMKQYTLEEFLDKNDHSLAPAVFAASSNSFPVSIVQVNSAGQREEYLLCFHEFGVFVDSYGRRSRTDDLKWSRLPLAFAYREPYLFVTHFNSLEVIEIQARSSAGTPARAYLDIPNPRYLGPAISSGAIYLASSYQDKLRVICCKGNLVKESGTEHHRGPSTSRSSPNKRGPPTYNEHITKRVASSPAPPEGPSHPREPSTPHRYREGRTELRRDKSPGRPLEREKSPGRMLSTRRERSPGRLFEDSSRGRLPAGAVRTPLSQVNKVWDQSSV
How it was run: as §1

[7] = target: T7, kinases of the scanMAX Kinase assay panel (Homo sapiens, UniProt P04049); details: RAF1; 1 uM
T7 construct: purchased DiscoverX Co. (contract measurement) scanMAX Kinase assay panel
T7 sequence (P04049 whole entry): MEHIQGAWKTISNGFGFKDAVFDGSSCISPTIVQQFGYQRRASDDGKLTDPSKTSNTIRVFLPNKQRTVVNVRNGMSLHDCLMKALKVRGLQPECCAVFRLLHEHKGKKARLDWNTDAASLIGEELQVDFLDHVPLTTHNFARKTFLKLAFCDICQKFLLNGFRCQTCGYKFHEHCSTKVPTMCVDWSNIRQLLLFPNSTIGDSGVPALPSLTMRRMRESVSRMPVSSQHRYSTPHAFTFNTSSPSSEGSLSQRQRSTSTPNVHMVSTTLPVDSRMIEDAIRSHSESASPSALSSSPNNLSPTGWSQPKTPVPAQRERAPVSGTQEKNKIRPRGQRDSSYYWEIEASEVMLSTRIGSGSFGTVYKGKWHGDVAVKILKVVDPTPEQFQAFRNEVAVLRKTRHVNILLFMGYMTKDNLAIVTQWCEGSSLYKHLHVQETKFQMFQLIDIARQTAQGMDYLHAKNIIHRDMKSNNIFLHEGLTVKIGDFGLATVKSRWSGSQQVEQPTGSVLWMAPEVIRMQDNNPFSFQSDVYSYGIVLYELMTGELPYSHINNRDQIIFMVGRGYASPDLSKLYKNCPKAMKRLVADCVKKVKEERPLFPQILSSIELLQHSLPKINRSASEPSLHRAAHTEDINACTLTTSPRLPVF
How it was run: as §1

| SMILES | remaining binding at 1 µM [1] [%] | remaining binding at 1 µM [2] [%] | remaining binding at 1 µM [3] [%] | remaining binding at 1 µM [4] [%] | remaining binding at 1 µM [5] [%] | remaining binding at 1 µM [6] [%] | remaining binding at 1 µM [7] [%] |
| --- | --- | --- | --- | --- | --- | --- | --- |
| CC1(Nc2nc(Nc3cnn([C@H]4CCN(C5COC5)C[C@@H]4F)c3Cl)nc3[nH]cc(C#N)c23)CC1 [Example 52, 2-((5-chloro-1-((3S,4S)-3-fluoro-1-(oxetane-3-yl)piperidine-4-yl)-1H-pyrazole-4-yl)amino)((1-methylcyclopropyl)amino)-7H-pyrrolo[2,3-d]pyrimidine-5-carbonitrile] | 75 | 85 | 6.4 | 43 | 37 | 76 | 100 |
| CNc1nc(Nc2ccc(C(=O)N3CCOCC3)cc2OC)nc2[nH]cc(C#N)c12 [Example 1, 2-((2-methoxy-4-(morpholine-4-carbonyl)phenyl)amino)-4-(methylamino)-7H-pyrrolo[2,3-d]pyrimidine-5-carbonitrile] | 98 | 100 | 95 | 93 | 84 | 86 | 95 |
| CCNc1nc(Nc2ccc(C(=O)N3CCC(N4CCOCC4)CC3)cc2OC)nc2[nH]cc(C(F)(F)F)c12 [Example 104, (4-((4-(ethylamino)-5-(trifluoromethyl)-7H-pyrrolo[2,3-d]pyrimidine-2-yl)amino)-3-methoxyphenyl)(4-morpholinopiperidine-1-yl)methanone] | 69 | 100 | 73 | 100 | 100 | 100 | 100 |
